Here are results for 3 compounds from patent US12710366B2, “Dyes undergoing changes in color and fluorescence upon binding of organic oxo compounds” (Bundesrepublik Deutschland, vertreten durch den …, priority 2020, dated 2026).

The nature of series [1]: UV/vis absorption and emission spectra (Stokes shift). It is filed as physicochemical. The protocol: (§1) Absorption spectra and spectrophotometric titrations were acquired with a Specord 210 Plus spectrometer (Analytik Jena), using dilute solutions with an absorbance of about 0.1 at the absorption maximum. The binding constants were assessed with BindFit v0.5 software. Fluorescence spectra and titrations were carried out on a FluoroMax 4 spectrofluorometer (Horiba Jobin-Yvon).
Normalized UV/vis absorption and emission (λex=465 nm) spectra at a fixed concentration of thiourea-based compound 19 were recorded in CHCl3, toluene, acetonitrile (MeCN) and methanol (MeOH), yielding Stokes shifts between 160 nm and 230 nm, respectively. This positive solvatochromism is ascribed to the effective intramolecular charge transfer from the two electron-donating groups (thiourea and tertiary amine) to the electron-accepting benzodiazole as the solvent polarity increases (FIG. 1-4). […]
Normalized UV/vis absorption and emission spectra of guanidinium-based compound 25 at a fixed concentration were recorded in CHCl3 and MeCN. Sizable Stokes shifts of 180 nm and 210 nm were observed (FIGS. 8 and 9) as a result of the effective intramolecular charge transfer process established from the two electron-donating groups (guanidinium and tertiary amine) to the electron-accepting benzodiazole in solvents of different polarity.

Series [2] is described as follows: Spectroscopic titration of compound 19 with ENOX-TBA in MeCN. It counts as binding. The method, then: as §1
This example illustrates the titration of the thiourea-based compound 19 with the ammonium salt of the antibiotic enoxacin (ENOX-TBA) in MeCN. […] The bathochromic shift of the absorption band upon binding can be rationalized considering that the donor-acceptor interaction between the thiourea and benzoxadiazole is reinforced with the charge donation of the electron-rich carboxylate anion to the thiourea through such supramolecular interactions. […] The estimated binding constant for this interaction was calculated to be K19/ENOX-TBA=[…] in MeCN.

The nature of series [3]: Solubility in polar solvents. It is filed as physicochemical. As to conditions: polar organic solvents and solvent/water mixtures.
Series [4] in a line: Spectroscopic titration of compound 25 with TBA-OAc. It is filed as binding. As to conditions: for change of UV/vis absorption band upon titration with TBA-OAc / change of fluorescence emission upon titration with TBA-OAc: c[25]=9×10^−6 M. The method, then:
as §1
The bathochromic shift of the absorption band upon binding can be rationalized considering that the donor-acceptor interaction between the guanidinium and the benzoxadiazole is reinforced by a charge donation of the electron-rich acetate anion to the guanidinium.

Molecules are shown by their SMILES. Several values for one entry are separate records, joined by “and”; a condition that tells them apart may be missing. Identical values can stand only once. Entries after “also recorded” stand apart in the source; their conditions may differ.

As for `C=C(C)C(=O)OCCN(C)c1ccc(NC(=S)NC(=O)c2ccccc2)c2nonc12` [Compound 19], in series [1] (in MeCN), the absorption band position turned out to be 462 nm. For the same compound, the Stokes shift in series [1] (in acetonitrile (MeCN)) was over 180 nm; in series [1] (in chloroform (CHCl3)), over 170 nm; in series [1] (in methanol (MeOH)), over 230 nm; in series [1] (in toluene), over 160 nm. Besides, the “interaction with oxoanions (e.g. ENOX-TBA)” value in series [2] was “can interact”. Also, in series [2] (MeCN, c[19]=2.2×10^−5 M), the “change of UV/vis absorption band upon titration with ENOX-TBA” value is “decrease and red shift”.

As for `C=C(C)C(=O)OCCN(C)c1ccc(NC(=N)NC(=O)c2ccccc2)c2nonc12` [Compound 23, 2-((7-(3-benzoylguanidino)benzo[c][1,2,5]oxadiazol-4-yl)(methyl)amino)ethyl methacrylate], the solubility result in series [3] was “soluble in polar organic solvents and polar organic solvent/water mixtures”.

With `C=C(C)C(=O)OCCN(C)c1ccc(NC(=N)NC(=O)c2ccccc2)c2nonc12.Cl` [Compound 25, benzamido((7-((2-(methacrycrykoyloxy)ethyl)(methyl)amino)benzo[c][1,2,5]oxadiazol-4-yl)amino)methaniminium chloride], the absorption band position in series [1] (CHCl3 and MeCN) is 450 nm. Also, the Stokes shift in series [1] (in acetonitrile (MeCN)) was 210 nm and > 210 nm; in series [1] (in chloroform (CHCl3)), 180 nm and > 180 nm. For the same compound, the “change of UV/vis absorption band upon titration with TBA-OAc” value was “decrease and a red shift” in series [4] (CHCl3); “decrease and a red shift” in series [4] (MeCN). Also, the “change of fluorescence emission upon titration with TBA-OAc” value in series [4] (CHCl3) is “red shift and decrease; also recorded: quenching and a red shift; also recorded: decrease and red shift”; in series [4] (MeCN), “red shift and decrease; also recorded: quenching and a red shift; also recorded: decrease and red shift”. For the same compound, the “interaction with oxoanions (e.g. TBA-OAc)” value in series [4] (non-polar and polar solvents) is listed as “can interact”.
